Reference: ChEMBL document CHEMBL1127093, “Competitive NMDA receptor antagonists: synthesis of -ketophosphonate-substituted piperidine carboxylic acid derivatives” (Bioorg Med Chem Lett, 1993)

Biological target: Glutamate NMDA receptor
Assay: Binding potency for NMDA site of the glutamate receptor complex using rat brain cortical membranes in a competitive binding assay with [3H]CPP as the radioligand
Format: cell membranes, Membrane

Row | SMILES | IC50
1 | C[C@]1(C(=O)CP(=O)(O)O)C=CCN[C@H]1C(=O)O | 3.2 nM
2 | C[C@]1(C(=O)CP(=O)(O)O)CCCN[C@H]1C(=O)O | 320 nM
3 | O=C(CP(=O)(O)O)[C@H]1CCCN[C@H]1C(=O)O | 40 nM
4 | O=C(CP(=O)(O)O)C1=CCCN[C@H]1C(=O)O | 7.6 nM
5 | C[C@@H]1CCN[C@@H](C(=O)O)[C@H]1C(=O)CP(=O)(O)O | 15 nM
